Assay results taken from PubChem BioAssay (NCI).
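A five-concentration, 48-hour dose response in 96-well plates underlies each endpoint, interpolated linearly between surrounding concentrations. At the GI50, growth is halved. The concentration for full growth arrest is given as TGI.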

Tested on: IGROV1 ovarian
Experiment: DTP human tumour cell line panel, 48 h

Q: What does the source list for `C=C1CC[C@@H](C(C)C)C[C@@H]2[C@H]([C@H](O)C[C@]2(C)O)[C@@]2(C)CC[C@@H]1O2`?
A: GI50: 17.2 µM; TGI: 33.4 µM

Q: With `Nc1ccc2[nH]cc(CCC(=O)O)c2c1` as the compound, how does the TGI read?
A: The TGI was greater than 100 µM.

Q: `OCC(O)CNc1ccnc2cc(Cl)ccc12` (stereo not given) was tested. Which TGI did it give?
A: Its TGI is greater than 100 µM.

Q: `Cc1cccc(C(C)C)c1NC(=O)C(=O)C(C(=O)c1ccccc1F)C1OC(=O)c2ccccc21` (stereo not given) was tested. Which TGI did it give?
A: The TGI was 77.9 µM.

Q: With `O=C(N/N=C/c1c(Cl)cccc1Cl)c1ccc(C(F)(F)F)nc1Nc1cccc(C(F)(F)F)c1` as the compound, how does the GI50 read?
A: Its GI50 is 1.01 µM.

Q: And the TGI?
A: The TGI was 13.9 µM.

Q: What does the source list for `O=C(NO)c1ccc(CN(c2cnccn2)c2cnccn2)cc1`?
A: GI50: 15.6 µM; TGI: 35.2 µM

Q: For `Cc1ccc(Nc2nnc(-c3ccc4c(c3)OCO4)o2)c(C)c1`, which TGI is on record?
A: Its TGI is greater than 100 µM.

Q: How did the GI50 turn out when `CCCCCc1ccc(S(=O)(=O)Nc2cc(-c3csc(NC(C)=O)n3)ccc2N2CCN(C)CC2)cc1` was run?
A: The GI50 was 4.67 µM.

Q: And the TGI?
A: Its TGI is 9.46 µM.

Q: For `Cc1cccc(C)c1NC(=O)C(=O)CC(=O)c1cccc([N+](=O)[O-])c1`, which TGI is on record?
A: The TGI was greater than 100 µM.

Q: Which TGI does the source give for `Cc1ccc(S(=O)(=O)NC(=O)NC2=NC(C)(C)N(c3ccc(Cl)c(Cl)c3)C(N)=N2)cc1` here?
A: The TGI was greater than 100 µM.

Q: How did the GI50 turn out when `S=C1SC2=Nc3ccccc3CN2C2=NCCN12` was run?
A: Its GI50 is 7.88 µM.

Q: And the TGI?
A: Its TGI is greater than 100 µM.

Q: Which TGI does the source give for `O=C(O)CN(c1ccccc1)S(=O)(=O)c1ccc([N+](=O)[O-])cc1` here?
A: The TGI was greater than 100 µM.

Q: `Clc1cc(Cl)cc(Nc2ccc3cc(OCCCN4CCOCC4)ccc3n2)c1` was tested. Which GI50 did it give?
A: The GI50 was 3.47 µM.

Q: What about the TGI of the same compound?
A: The TGI was greater than 100 µM.

Q: What does the source list for `COc1ccc2c3c(Nc4ccc(/C(C)=N/O)cc4)[nH]c4ccccc4c-3c(N=O)c2c1`?
A: GI50: 15 µM; TGI: 29.2 µM

Q: `C/C(CCn1[nH]c(=O)ccc1=O)=N\OCCCc1ccccc1` was tested. Which TGI did it give?
A: Its TGI is greater than 100 µM.

Q: Which results are given for `Nc1nc(N)c2cc(CNc3ccc(C(=O)NC(CC(=O)O)C(=O)O)c(Cl)c3)ccc2n1` (stereo not given)?
A: GI50: 223 µM; TGI: > 500 µM

Q: What does the source list for `CCN(CC)c1cc2oc3cc(N)cc(=N)c-3nc2cc1C`?
A: GI50: 3.03 µM; TGI: 14.3 µM

Q: `CC(=O)OC1C2CCC1C1C2C2(Cl)C(Cl)=C(Cl)C1(Cl)C2(Cl)Cl` (stereo not given) was tested. Which TGI did it give?
A: Its TGI is 36 µM.

Q: `CC(C(=O)n1c2ccccc2c2ccccc21)N(c1ccccc1)c1ccccc1` (stereo not given) was tested. Which TGI did it give?
A: Its TGI is 32.6 µM.

Q: With `CCOC(=O)Cn1c(=O)n(C)c(=O)c2c1ncn2Cc1ccccc1` as the compound, how does the TGI read?
A: The TGI was greater than 100 µM.

Q: With `CC(C)(C)OC(=O)N1N=NC2C1C1CC(OCc3ccccc3)(OCc3ccccc3)C2O1` (stereo not given) as the compound, how does the TGI read?
A: Its TGI is greater than 100 µM.

Q: With `O=C1CSC(c2ccc(-c3nc4ccccc4s3)cc2)=N1` as the compound, how does the GI50 read?
A: The GI50 was 50.5 µM.

Q: And the TGI?
A: Its TGI is greater than 100 µM.

Q: How did the TGI turn out when `Cc1ncc([N+](=O)[O-])n1CCNS(=O)(=O)CCCn1ncnc1[N+](=O)[O-]` was run?
A: Its TGI is greater than 100 µM.

Q: For `O=c1c2ccccc2nc(-c2ccccc2)n1NC(=S)Nc1ccccc1`, which TGI is on record?
A: Its TGI is greater than 100 µM.

Q: With `CCOC(=O)/C(=C/c1cccc(C#N)c1)N(CC)CC` as the compound, how does the TGI read?
A: Its TGI is greater than 100 µM.

Q: How did the GI50 turn out when `C=CCN1CC2CON(C(=O)C(OC)(c3ccccc3)C(F)(F)F)C2C1C(C)C` (stereo not given) was run?
A: The GI50 was 56.9 µg/mL.

Q: For `O=S1(=O)OCCOS(=O)(=O)C1Cl`, which TGI is on record?
A: The TGI was greater than 100 µM.

Q: Which TGI does the source give for `Oc1ccc(Br)cc1C=Nc1ccc(N=Cc2cc(Br)ccc2O)cc1` here?
A: The TGI was greater than 100 µM.

Q: For `CCOc1ccccc1NC(=O)C(=O)Cc1nc2ccccc2s1`, which TGI is on record?
A: Its TGI is greater than 100 µM.

Q: With `CO/N=C(/C)c1cccc(Nc2cc(-c3ccccc3)nc3ccc(OC)cc23)c1` as the compound, how does the GI50 read?
A: The GI50 was 26.2 µM.

Q: What about the TGI of the same compound?
A: Its TGI is greater than 100 µM.

Q: Which TGI does the source give for `Cc1cccc(N=C2NC(=O)C(CC(=O)Nc3cccc(C)c3C)S2)c1` (stereo not given) here?
A: Its TGI is greater than 100 µM.

Q: Which TGI does the source give for `CN(C)CCSc1nccc(-c2cc3ccccc3s2)n1` here?
A: Its TGI is greater than 100 µM.

Q: How did the TGI turn out when `O=C(O)CSc1n[nH]c(Cc2ccccc2)n1` was run?
A: The TGI was greater than 100 µM.

Q: With `O=C1C(Cl)=C(Nc2ccccc2O)C(=O)N1Cc1ccccc1` as the compound, how does the GI50 read?
A: The GI50 was 29.7 µM.

Q: What about the TGI of the same compound?
A: The TGI was greater than 100 µM.

Tested on: OVCAR-3 ovarian
Experiment: DTP human tumour cell line panel, 48 h

Q: Which results are given for `CN1CCN(c2ccc(Nc3ncc4cc(C#N)c(=O)n(C5CCCC5)c4n3)cc2)CC1`?
A: GI50: 2.94 µM; TGI: > 24.2 µM

Q: What does the source list for `C=C1CC[C@@H](C(C)C)C[C@@H]2[C@H]([C@H](O)C[C@]2(C)O)[C@@]2(C)CC[C@@H]1O2`?
A: GI50: 14.8 µM; TGI: 29.5 µM

Q: For `Nc1ccc2[nH]cc(CCC(=O)O)c2c1`, which TGI is on record?
A: The TGI was greater than 100 µM.

Q: With `OCC(O)CNc1ccnc2cc(Cl)ccc12` (stereo not given) as the compound, how does the TGI read?
A: Its TGI is greater than 100 µM.

Q: How did the TGI turn out when `Cc1cccc(C(C)C)c1NC(=O)C(=O)C(C(=O)c1ccccc1F)C1OC(=O)c2ccccc21` (stereo not given) was run?
A: Its TGI is 38 µM.

Q: Which GI50 does the source give for `O=C(N/N=C/c1c(Cl)cccc1Cl)c1ccc(C(F)(F)F)nc1Nc1cccc(C(F)(F)F)c1` here?
A: Its GI50 is 0.284 µM.

Q: And the TGI?
A: The TGI was 6.47 µM.
